For one series, the system named is Meth A cells. The experiment in a line: Necrotic effect against the Meth A tumor tissue. Format: in vivo, Balb/c mice. Particulars: given intravenously, 7 days after transplantation, observed after 24 hours.
The subject of series [1] is human myelocytic leukemia cells HL-60. The experiment in a line: Growth inhibiting effect and differentiation inducing activity on HL-60 (method of R. Gallo et al.). Format: cell-based. Particulars: HL-60 cells. On the procedure: According to the method of R. Gallo et al. described in Blood 54 (3), 713 (1979), the growth inhibiting effect (IG effect)and differentiation inducing activity of 1-0-octadecyl-2-O-(morpholinocarbonyl)glycero-3-phosphocholine against human myelocytic leukemia cells HL-60 were assayed.

The next series relates to rat platelet. Kind of series: Platelet aggregation. It is filed as cell-based. The following applies: concentration of 3 x 10-^5 M. From the text: Neither l-0-octadecyl-2-0-(morpholinocarbonyl)glycero-3-phosphocholine nor 3-octadecyloxy-2-(morpholino-carbonyloxy)propyl 2-thiazolioethyl phosphate at a concentration of 3 x 10-^5 M caused platelet aggregation against rat platelet.

The subject of series [2] is S 180 cells. Kind of series: Antitumor effect against mice bearing S 180 tumor (intraperitoneal inoculation, survival). It is filed as in vivo, ICR mice. The following applies: 0.3 mg/mouse once a day, three times in total; for T/C (%) (life-span prolongation ratio against the control group): control group average survival 12.2 days; for Number of mice surviving for 50 days: group of five ICR mice inoculated intraperitoneally with 1 x 10^5 S 180 cells. On the procedure: ICR mice (a group consisting of five mice) were inoculated intraperitoneally with 1 x 10^5 S 180 cells per mouse, and then'given 0.3 mg/mouse of l-O-octadecyl-2-0-(morpholinocarbonyl)glycero-3-phosphocholine (Compound No. 1) dissolved in physiological saline once a day, three times in total, on the day of the inoculation and on the next day and the second day after the inoculation. The average of the survival days for the control group (consisting of 5 mice) was 12.2 days, whereas the number of surviving' mice in the drug-treated group on the 50th day and the life-span prolongation ratio (T/C) against the control group, are shown in Table 1.
In a similar manner, a test was carried out with 1-O-octadecyl-2-O-methylglycero-3-phosphocholine used as a control drug (A), with the results being shown below.

The subject of series [3] is S 180 cells. Kind of series: Activity toward mice bearing the Sarcoma 180 tumor (subcutaneous transplant, tumor weight). Format: in vivo, ICR mice. The following applies: 25 mg/kg injected into the tumor every four days from the 7th day, four times; for Proliferation inhibition ratio (%): 24th day, against control group; for Weight of tumor: measured on the 24th day. How it is done:
ICR mice (male, 8-week-old, a group consisting of 5 mice), as divided into two groups, were transplanted subcutaneously with 1 x 10^6 S 180 cells per mouse, respectively. One group was treated with the drug by injection into the tumor every four days commencing with the 7th day after the transplantation, four times in total. On the 24th day, the average tumor weight for the drug-treated group was measured, and the ratio (the tumor proliferation inhibition ratio) against that for the control group (not treated with the drug) was calculated.

In brackets after ≈: the same amount, converted by molar mass.

Regarding `CCCCCCCCCCCCCCCCCCOCC(COP(=O)([O-])OCC[N+](C)(C)C)OC(=O)N1CCCC1` (centres unmarked) [1-O-octadecyl-2-O-(pyrrolidinocarbonyl)glycero-3-phospho-choline], in the series on Meth A cells (25 mg/kg), the “change of the tumor tissue (necrosis)” value is on record as “necrosis through bleeding”.
Take `CCCCCCCCCCCCCCCCCCOCC(COP(=O)([O-])OCC[N+](C)(C)C)OC(=O)N1CCOCC1` (stereo not drawn) [Compound 1, l-O-octadecyl-2-0-(morpholinocarbonyl)glycero-3-phosphocholine]: the differentiation inducing activity result in series [1] (concentration of 1-2 ug/ml) is on record as “mild differentiation inducing activity”. Moreover, in series [1] (Homo sapiens, read-out: IG effect on HL-60 (GD50)), the IC50 stood at 0.6 µg/mL (≈ 0.963 µM). The “change of the tumor tissue (necrosis)” value in the series with Meth A cells (1.25 mg/kg) is on record as “necrosis through bleeding”. The “caused platelet aggregation against rat platelet” value in the series on rat platelet is reported as “Neither”. Also, in the series on S 180 cells [2], the “T/C (%) (life-span prolongation ratio against the control group)” value is more than 336% and the “Number of mice surviving for 50 days” value is on record as 2.
For the compound `CCCCCCCCCCCCCCCCCCOCC(COP(=O)([O-])OCC[N+](C)(C)C)OC` (centres unmarked) [Control drug A, 1-O-octadecyl-2-O-methylglycero-3-phosphocholine, reference compound], in the series on S 180 cells [2], the “T/C (%) (life-span prolongation ratio against the control group)” value is 162% and the “Number of mice surviving for 50 days” value amounted to 0.
With `CCCCCCCCCCCCCCCCCCOCC(COP(=O)([O-])OCC[N+](C)(C)C)OC(=O)N1CCCCC1` (centres unmarked) [Drug 2, 1-O-Octadecyl-2-O-(piperidinocarbonyl)glycero-3-phosphocholine], in the series on S 180 cells [3], the “Proliferation inhibition ratio (%)” value is on record as 52.4% and the “Weight of tumor” value came out at 0.71 g.
Turning to `CCCCCCCCCCCCCCCCCCOCC(COP(=O)([O-])OCC[n+]1ccsc1)OC(=O)N1CCOCC1` (centres unmarked) [Drug 3, 3-Octadecyloxy-2-(morpholinocarbonyloxy)propyl 2-thiazolioethyl phosphate], in the series on S 180 cells [3], the “Proliferation inhibition ratio (%)” value came to 73.9% and the “Weight of tumor” value is reported as 0.39 g. The “caused platelet aggregation against rat platelet” value with rat platelet is listed as “Neither”.

These data come from patent EP0171968A1, “Use of a phospholipid derivative” (Takeda Chemical Industries, Ltd., priority 1984, dated 1986).
